Laboratory results from publication PMC1904258, “X-ray Structures of the Signal Recognition Particle Receptor Reveal Targeting Cycle Intermediates” (PLoS ONE, 2007).

Target: T1, FtsY (T. aquaticus) (Thermus aquaticus, UniProt P83749)
T1 construct: FtsY retaining N-terminal helix N1 (naturally lacks A-domain), NG domains; expressed in E. coli BL21(DE3) from pET21; apo/GMPPNP NCS dimer in crystal
T1 sequence (P83749 1-304): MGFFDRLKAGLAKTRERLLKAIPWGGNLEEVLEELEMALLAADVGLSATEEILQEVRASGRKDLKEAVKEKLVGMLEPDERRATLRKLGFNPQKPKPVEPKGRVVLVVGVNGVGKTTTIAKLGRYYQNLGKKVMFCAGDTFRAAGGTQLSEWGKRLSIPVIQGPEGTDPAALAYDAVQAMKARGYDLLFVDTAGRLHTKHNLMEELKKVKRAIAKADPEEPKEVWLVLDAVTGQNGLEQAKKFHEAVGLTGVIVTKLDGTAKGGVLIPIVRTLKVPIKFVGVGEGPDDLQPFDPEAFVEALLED
Assay: X-ray crystal structure of complex ([…] and […] Å)
Format: binding
Details: non-hydrolysable GTP analogue; form I (F1, 2.2 Å) grown with MgCl2, no ordered Mg2+; form II (F2, 2.3 Å) without Mg2+; GTPase active site, one monomer of the dimer

For Nc1nc2c(ncn2[C@@H]2O[C@H](COP(=O)(O)OP(=O)(O)NP(=O)(O)O)[C@@H](O)[C@H]2O)c(=O)[nH]1 [GMPPNP], the “X-ray crystal structure of complex (2.2 and 2.3 Å)” value was “one monomer in apo-FtsY and the other FtsY monomer bound with GMPPNP”.
